Results taken from patent US7795310B2, “Methods and reagents for the treatment of metabolic disorders” (CombinatoRx, Inc., priority 2004, dated 2010).
Counter-ions that a name gives are not always drawn. Like-named read-outs stand apart in the source and are kept apart here.

How the values were obtained:
[1] = test system: 3T3-L1 adipocytes; assay: Screening assay: insulin-stimulated 14C-glucose uptake by adipocytes (Example 3; F, sF, S/N); type: cell-based, mouse
Description: These assays were conducted as follows.
(§1) Complete media, also referred to as “Prees” media, was prepared as follows. Dulbecco's Modified Eagle's Medium (DMEM) was supplemented with L-glutamine, penicillin-G and streptomycin (pen/strep), and heat-inactivated fetal bovine serum (FBS) (heat inactivated at […] for 30 minutes). Because serum can affect the growth, adherence, and differentiation of cells, any new lot of serum was first tested prior to use. Media was equilibrated in the incubator (5% CO2) until the pH was within the proper range (˜7), as indicated by the red/orange color of the indicator dye. If the media became pink (indicating a high pH), we discarded the media as basic conditions can affect cells and denature the insulin used in the differentiation medium-1 (DM1) and the differentiation medium-2 (DM2).
Differentiation media-2 (DM2) was prepared by supplementing DMEM with 10% FBS, L-glutamine, pen/strep, and insulin (120 nM).
(§2) Cell culture plates were gelatinized as follows. Gelatin (1% w/v in distilled water) was autoclaved and stored at room temperature. The bottom of each cell culture well was covered uniformly in the gelatin solution, ensuring that no bubbles were formed. This solution was removed leaving behind a thin film of gelatin. These plates were left to dry under the tissue culture hood. Plates were next washed with PBS, after which a 0.5% glutaric dialdehyde solution (glutaraldehyde in distilled water) was added to the cell culture wells. After ten minutes, wells were washed twice with DMEM containing pen-strep. Each washing step should last for approximately five minutes.
(§3) 3T3-L1 pre-adipocyte cells were split approximately every 2-3 days or upon reaching a confluence of approximately 60%. Overconfluency may affect the ability of these cells to differentiate into adipocytes.
(§4) D-(+)-glucose (“cold” glucose, not radiolabeled) was added to DPBS mix to a final concentration of 10 mM.
(§5) Lysis buffer, a mixture of a base (e.g., sodium hydroxide at a final concentration of 0.5N) and a detergent (e.g., sodium dodecyl sulphate (SDS) diluted to a final concentration of 0.1% w/v) was freshly prepared each time (within one to two hours of use). Prior to use, lysis buffer was warmed up to a temperature exceeding that of room temperature for a period of approximately 30 minutes to avoid precipitation of the buffer.
(§6) Pre-adipocyte 3T3-L1 cells were plated at a density of approximately 5000 cells/well (in black NUNC 96 well plate). These cells were differentiated into adipocytes in two separate steps. Initially, cells were cultured in differentiation medium-1 (DM1) (day 1 of adipocyte differentation) for a period of two to three days. DM1 prevents proliferation and induces the expression of adipocyte-specific genes. Cells were next cultured in differentiation medium-2 (DM2) for 3 to 4 days, after which the culture media was replaced by fresh DM2. The glucose uptake assay was performed at day 9-15 of differentiation.
Two days prior to the experiment (at day 7-13 of differentiation), DM2 was removed and replaced with fresh Prees media. Candidate compounds were added at this time, allowing an incubation period of approximately 48 hours. On the day of the experiment, cells (now at day 9 to 15 of differentiation) were serum starved for three hours in DPBS, magnesium sulfate (0.8 mM), and Hepes (10 mM) at pH ˜7. After this incubation period, fresh DPBS containing insulin (10 nM) was added to the adipocytes. Fresh DPBS without any insulin were placed on cells that served as a negative control. Following an incubation period of 25 minutes at 37° C., radioactive glucose (labeled with ^14C, at a final concentration of 0.04 mM, ˜0.26 μCi ^14C-glucose in each well) was added to the media for a period of 15 minutes at room temperature. Media was next removed and cells were washed thoroughly and lysed. Upon lysis, cells form a small, cloudy mass, detached from the well bottom.

[2] = test system: human skeletal myoblasts; assay: Glycogen synthesis from radiolabeled glucose in skeletal myoblasts (Example 3; Xlsyz); type: cell-based
Description: In another set of experiments, human skeletal myoblasts obtained by the conditional immortalization of cells derived from a non-diabetic subject, were used to screen the effect of a multitude of compounds on glycogen synthesis. For each compound, two doses were tested in triplicate. The vehicle was used as a negative control and insulin was used as a positive control. Prior to treatment, cells were serum-starved for 12 to 18 hours in Ham's F10 medium. Cells were next incubated either with the test compounds or control for a period of two hours in serum-free media containing radiolabeled glucose, after which, glycogen synthesis was measured.

[3] = test system: 3T3-L1 adipocytes; assay: Insulin-stimulated 14C-glucose uptake in differentiated adipocytes (Example 1); type: cell-based, mouse
Description: Differentiated mouse adipocytes were employed to identify combinations of agents that have the ability to increase glucose uptake upon insulin stimulation, as detected by scintillation counting of radiolabelled glucose (using, for example, the Perkin Elmer 1450 Microbeta JET reader). These assays were conducted as follows.
as §1
Differentiation media-1 (DM1) was prepared by supplementing DMEM with 10% FBS, L-glutamine, pen/strep, IBMX (375 μM), insulin (120 nM), and dexamethasone (188 nM). Differentiation media-2 (DM2) was prepared by supplementing DMEM with 10% FBS, L-glutamine, pen/strep, and insulin (120 nM).
as §2, §3, §4, §5, §6
Two days prior to the experiment (at day 7-13 of differentiation), DM2 was removed and replaced with fresh Prees media. Candidate compounds were added at this time, allowing an incubation period of approximately 48 hours. On the day of the experiment, cells (now at day 9 to 15 of differentiation) were serum starved for three hours in DPBS, magnesium sulfate (0.8 mM), and Hepes (10 mM) at pH ˜7. After this incubation period, fresh DPBS containing insulin (10 nM) was added to the adipocytes. Fresh DPBS without any insulin were placed on cells that served as a negative control. […]

[4] = insulin-stimulated 14C-glucose uptake, 3T3-L1 adipocytes, about 48 h with compound, 10 nM insulin, test concentration per compound in column CRx uM
[5] = glycogen synthesis, human skeletal myoblasts, 2 h, dose (H)
[6] = glycogen synthesis, human skeletal myoblasts, 2 h, dose (L), concentration per compound uM(L)

| Compound | CRx F [1, 4] | Xlsyz F(H) [2, 5] | Xlsyz F(L) [2, 6] | other results |
| --- | --- | --- | --- | --- |
| CC(=O)Nc1ccc(O)cc1 [Acetaminophen] | 1.021 | – | – | – |
| CC(=O)Nc1nnc(S(N)(=O)=O)s1 [Acetazolamide] | 0.8994 | – | – | – |
| CC(=O)O[C@H]1C[C@H](O[C@H]2[C@@H](O)C[C@H](O[C@H]3[C@@H](O)C[C@H](O[C@H]4CC[C@@]5(C)[C@H](CC[C@@H]6[C@@H]5CC[C@]5(C)[C@@H](C7=CC(=O)OC7)CC[C@]65O)C4)O[C@@H]3C)O[C@@H]2C)O[C@H](C)[C@H]1O [Acetyldigitoxin] | 0.8077 | 1.2593 | 1.3016 | – |
| Cl.N [Ammonium Chloride] | – | 1.2105 | 0.8482 | CRx F [1]: 0.8881 |
| CCCCNCC(O)c1ccc(O)cc1 (stereo not drawn) [Bamethan] | 1.1895 | 1.3846 | 0.9106 | – |
| CC(C)(Oc1ccc(CCNC(=O)c2ccc(Cl)cc2)cc1)C(=O)O [Bezafibrate] | – | – | – | average fold increase in insulin-stimulated glucose uptake compared to vehicle treated control ([3]; Bezafibrate 9 μM, Cinnamic acid 0 μM, average of three biological replicates): 0.94 fold; average fold increase in insulin-stimulated glucose uptake compared to vehicle treated control ([3]; Bezafibrate 9 μM, Diflunisal 0 μM, average of four biological replicates): 1.16 fold; average fold increase in insulin-stimulated glucose uptake compared to vehicle treated control ([3]; Bezafibrate 18 μM, Cinnamic acid 0 μM, average of three biological replicates): 1.21 fold; average fold increase in insulin-stimulated glucose uptake compared to vehicle treated control ([3]; Bezafibrate 18 μM, Diflunisal 0 μM, average of four biological replicates): 1.37 fold; average fold increase in insulin-stimulated glucose uptake compared to vehicle treated control ([3]; Bezafibrate 36 μM, Cinnamic acid 0 μM, average of three biological replicates): 1.15 fold; average fold increase in insulin-stimulated glucose uptake compared to vehicle treated control ([3]; Bezafibrate 36 μM, Diflunisal 0 μM, average of four biological replicates): 1.57 fold |
| [Ca+2].[Cl-].[Cl-] [Calcium Chloride] | – | – | – | CRx F [1]: 0.7358; Xlsyz F(H) [2]: 1.2121; Xlsyz F(L) [2]: 1.0714 |
| C[C@H](CS)C(=O)N1CCC[C@H]1C(=O)O [Captopril] | 0.662 | – | – | – |
| NC(=O)N1c2ccccc2C=Cc2ccccc21 [Carbamazepine] | 0.7464 | – | – | – |
| O=C(O)C=Cc1ccccc1 [Cinnamic acid, 3-phenyl-2-propenoic acid] | – | – | – | average fold increase in insulin-stimulated glucose uptake compared to vehicle treated control ([3]; Cinnamic acid 3 μM, Bezafibrate 0 μM, average of three biological replicates): 0.98 fold; average fold increase in insulin-stimulated glucose uptake compared to vehicle treated control ([3]; Cinnamic acid 6 μM, Bezafibrate 0 μM, average of three biological replicates): 1.03 fold; average fold increase in insulin-stimulated glucose uptake compared to vehicle treated control ([3]; Cinnamic acid 12 μM, Bezafibrate 0 μM, average of three biological replicates): 1.10 fold |
| [Cl][Cu][Cl] [Cupric Chloride] | 1.3661 | 1.25 | 1.0643 | – |
| O=C(O)Cc1ccccc1Nc1c(Cl)cccc1Cl [Diclofenac Sodium] | 1.3966 | – | – | – |
| Cc1onc(-c2c(Cl)cccc2Cl)c1C(=O)N[C@@H]1C(=O)N2[C@@H]1SC(C)(C)[C@@H]2C(=O)O [Dicloxacillin Sodium] | 1.0042 | – | – | – |
| O=C(O)c1cc(-c2ccc(F)cc2F)ccc1O [Diflunisal, 2′,4′-difluoro-4-hydroxy-[1,1′-biphenyl]-3-carboxylic acid] | – | – | – | average fold increase in insulin-stimulated glucose uptake compared to vehicle treated control ([3]; Diflunisal 9 μM, Bezafibrate 0 μM, average of four biological replicates): 1.12 fold; average fold increase in insulin-stimulated glucose uptake compared to vehicle treated control ([3]; Diflunisal 18 μM, Bezafibrate 0 μM, average of four biological replicates): 1.19 fold; average fold increase in insulin-stimulated glucose uptake compared to vehicle treated control ([3]; Diflunisal 36 μM, Bezafibrate 0 μM, average of four biological replicates): 1.52 fold |
| C[C@H]1O[C@@H](O[C@H]2[C@@H](O)C[C@H](O[C@H]3[C@@H](O)C[C@H](O[C@H]4CC[C@@]5(C)[C@H](CC[C@@H]6[C@@H]5CC[C@]5(C)[C@@H](C7=CC(=O)OC7)CC[C@]65O)C4)O[C@@H]3C)O[C@@H]2C)C[C@H](O)[C@@H]1O [Digitoxin] | 0.8801 | – | – | – |
| C[C@H](N[C@@H](CCc1ccccc1)C(=O)O)C(=O)N1CCC[C@H]1C(=O)O [Enalaprilat] | 0.992 | 0.8333 | 1.2739 | – |
| COc1cc([C@@H]2c3cc4c(cc3[C@@H](O[C@@H]3O[C@@H]5CO[C@@H](C)O[C@H]5[C@H](O)[C@H]3O)[C@H]3COC(=O)[C@H]23)OCO4)cc(OC)c1O [Etoposide] | 1.037 | – | – | – |
| CCC(Cc1c(I)cc(I)c(O)c1I)C(=O)O (stereo not drawn) [Iohenoxic Acid] | 1.0641 | 1.2119 | 1.0504 | – |
| CCN(CC)C(=S)[S-].CCN(CC)C(=S)[S-].[Pb+2] [LEAD DIETHYLDITHIOCARBAMATE] | 1.524 | 1.2527 | 1.064 | – |
| CCN(CC)CC#CCOC(=O)C(O)(c1ccccc1)C1CCCCC1 (stereo not drawn) [Oxybutynin Chloride] | 1.0483 | – | – | – |
| O=C1NC(=O)C(c2ccccc2)(c2ccccc2)N1 [PHENYTOIN] | 1.1755 | – | – | – |
| CCCCC1C(=O)N(c2ccccc2)N(c2ccccc2)C1=O [Phenylbutazone] | 1.2098 | – | – | – |
| CCN(CC)CCCC(C)Nc1c2ccc(Cl)cc2nc2ccc(OC)cc12 (stereo not drawn) [QUINACRINE] | 1.0058 | – | – | – |
| Cc1cc(NS(=O)(=O)c2ccc(N)cc2)nc(C)n1 [Sulfasomidine] | 1.1803 | 1.3077 | 1.0165 | – |
| CC(C)(C)NCC(O)c1cc(O)cc(O)c1 (stereo not drawn) [Terbutaline Sulfate] | 1.2758 | – | – | – |
| CCS(=O)(=O)CCn1c([N+](=O)[O-])cnc1C [Tinidazole] | 1.0177 | – | – | – |
| c1ccc(CC2=NCCN2)cc1 [Tolazoline Hydrochloride] | 0.967 | – | – | – |
| Inulin | 1.0249 | 1.0089 | 1.3377 | – |
| Invertase | 1.2175 | 0.8561 | 1.3974 | – |
| Metaproterenol Hemisulfate Salt | 1.7249 | 1.1261 | 1.4052 | – |
